Several values for one entry are separate records, joined by “and”; a condition that tells them apart may be missing. Equal values may be shown once. Where a name gives a salt, the structure may show the parent alone. Marks after values point to notes of the source that are not given here.
Tests used:
[1] = test system: morphine-induced hypomotility; assay: Charcoal meal assay (gastrointestinal motility) of Witkin et al.; type: in vivo, mice; details: for effect on percentage of intestine traveled in the absence of morphine: groups 4 and 6, no morphine; for effect on percentage of intestine traveled in the absence of morphine / alleviation of the depressant effect of morphine on intestinal transit: result in words; for alleviation of the depressant effect of morphine on intestinal transit: groups 5 and 7, morphine 10 mg/kg p.o.
Source text: To determine whether nalmefene glucuronide would alleviate morphine-induced hypomotility, the charcoal meal assay method of Witkin et al. (J. Pharmacol. Ext. Therep., 133: 400, 1961) was done on 56 mice. […]

[2] = Absorption and intestinal distribution of 14C labelled nalmefene glucuronide after oral administration; type: in vivo; details: rats
Source text: However the 2-3% of the dose which had reached the cecum by this time was almost exclusively free nalmefene. Therefore the glucuronide of an opioid antagonist provides a means of preventing narcotic-induced intestinal hypomotility without interfering with central nervous system effects of narcotics, such as analgesia.

opioid-dependant animals = assay: Rapid Quantitative In Vivo Assay for Narcotic Antagonist of Katovich et al. (skin tail temperature rise as a CNS withdrawal sign); details: Figure 2; injection of 1000 µg/kg
Source text: The Rapid Quantitative In Vivo Assay for Narcotic Antagonist of Katovich et al. (Substance and Alcohol Actions/Misuse, vol 5: 87095, 1984) was used. This assay is based on the extreme sensitivity of opioid-dependant animals to narcotic antagonists. Injection of these animals with a narcotic antagonist produces severe central nervous system withdrawal signs. One of these signs is an abrupt rise in the skin temperature of the tail.

[3] = Morphine 10 mg/kg p.o. 30 minutes before drug p.o., 15 mg/kg or 2.9 x 10⁻⁶ M/kg nalmefene glucuronide, 2.9 x 10⁻⁶ M/kg nalmefene HCl, determined 30 min later
[4] = Saline p.o. 30 minutes before drug p.o. (no morphine), 15 mg/kg or 2.9 x 10⁻⁶ M/kg nalmefene glucuronide, 2.9 x 10⁻⁶ M/kg nalmefene HCl, determined 30 min later

For `CN1CC[C@]23c4c5ccc(O)c4O[C@H]2[C@@H](O)C=C[C@H]3[C@H]1C5` [Morphine], the “Percent Meal Traveled ± S.E.M.” value ([1]; mouse, in vivo) was 28 ± 2 (N=8)^c Percent and 31 ± 3 (N=8)^c,^g Percent and the “reduction of the percentage of the intestine traveled” value ([1]; mouse, in vivo) was “more than half”.

With `C=C1CCC2(O)C3Cc4ccc(OC5OC(C(=O)O)C(O)C(O)C5O)c5c4C2(CCN3CC2CC2)C1O5` [Nalmefene Glucuronide, nalmefene-3β-D-glucuronide] the “Percent Meal Traveled ± S.E.M.” value [1, 3] was 58 ± 12 (N=5)^d,^e,^h,^i Percent, the “Percent Meal Traveled ± S.E.M.” value [1, 4] was 66 ± 3 (N=8)^d Percent and the “effect on percentage of intestine traveled in the absence of morphine” value [1] was “neither nalmefene (group 6) nor nalmefene glucuronide (group 4) had any significant effect”. The “alleviation of the depressant effect of morphine on intestinal transit” value (“alleviation” below) ([1]; listed as nalmefene glucuronide) was “protected the intestine against the depressant effect of morphine”, the “alleviation” value ([1]; listed as nalmefene-3β-D-glucuronide) was “as effective as nalmefene” and the “alleviation” value ([1]; listed as nalmefene-β-D-glucuronide) was “as effective as nalmefene”. The “absorption following oral administration” value ([2]; doses as high as 40 mg/kg) was “not absorbed to any measurable extent”, the “dose present in the small intestine still as nalmefene glucuronide” value ([2]; oral, 2 hours after dosing) was “about 85%” and the radioactivity in plasma ([2]; oral, 2 hours after dosing) was “No radioactivity could be detected”. For the same compound, the “rise in skin tail temperature” value (opioid-dependant animals) was “had no effect”.

With `C=C1CC[C@@]2(O)[C@H]3Cc4ccc(O)c5c4[C@@]2(CCN3CC2CC2)[C@H]1O5` [Nalmefene HCl, 6-methylene-6-desoxy-N-cyclopropylmethyl-14-hydroxydihydronormorphine] the “Percent Meal Traveled ± S.E.M.” value [1, 3] was 66 ± 14 (N=5)^d,^e,^f Percent, the “Percent Meal Traveled ± S.E.M.” value [1, 4] was 63 ± 2 (N=8)^c Percent and the “effect on percentage of intestine traveled in the absence of morphine” value [1] was “neither nalmefene (group 6) nor nalmefene glucuronide (group 4) had any significant effect”. For the same compound, the “alleviation” value [1] was “protected the intestine against the depressant effect of morphine”.

— patent EP0324212A1, “Glucuronic acid derivatives of opioid antagonists” (BAKER NORTON PHARMACEUTICALS, INC., priority 1988, dated 1989)
